According to the supplement of paper PMC11208160:

Assay: recombinant barcode read abundance after kanamycin selection (control-corrected) (log10(CPM+1)); higher = more efficient recombination; sequences stand for … in AGTGCAGAGAAAATCGGCCAGTTTTCTCTGCCTGCAGTCCGCATGCCGT…AGATTTATGCAGCGGACTGCCTTTCTCCCAAAGTGATAAACCGGACAGTATCATGGACCGGTTTTCCCGGTAATCCGTATTTGCAAGGTTGGTTTCACT; site = the 11-nt target
Procedure, shortened: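 Oligos holding a promoter, target, barcode and the J23119-driven first 104 bases of the bridge RNA were Gibson-cloned into a vector that supplied the other 73 bp plus a T7-inducible recombinase. This library was co-electroporated with a donor plasmid into E. coli. Two replicates went on chloramphenicol/ampicillin LB agar (control) and two on chloramphenicol/ampicillin/kanamycin with 0.1 mM IPTG. Recombination efficiency is read from averaged, control-corrected barcode counts per million at recombinant junctions, reported as log10(CPM+1).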
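Further: IS621 recombinase and bridge RNA in Escherichia coli cells.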

| Sequence | recombinant barcode read abundance (log10) |
| --- | --- |
| GGACTATCTTGGGTTCTAACCTGTTGCCT (site GGACTATCTAG) | 1.18 |
| GGACTCACTTGGGTTCTAACCTGTTGCCT (site GGACTCACTAG) | 1.77 |
| GGACTCACTTGGGTTCTAACCTGTTGCCT (site GGATTCTCTAG) | 0.15 |
| GGAGAACCTTGGGTTCTAACCTGTTGCCT (site AGAGAACCTAG) | 1.85 |
| GGAGAACCTTGGGTTCTAACCTGTTGCCT (site CGAGAACCTAG) | 0.492 |
| GGAGAACCTTGGGTTCTAACCTGTTGCCT (site GGAGAACCTAG) | 2.48 |
| GGAGAACCTTGGGTTCTAACCTGTTGCCT (site TGAGAACCTAG) | 1.56 |
| GGAGAGGCTTGGGTTCTAACCTGTTGCCT (site GGAGAAGCTAG) | 0.893 |
| GGAGAGGCTTGGGTTCTAACCTGTTGCCT (site GGAGACGCTAG) | 0.143 |
| GGAGAGGCTTGGGTTCTAACCTGTTGCCT (site GGAGAGGCTAG) | 1.54 |
| GGAGAGGCTTGGGTTCTAACCTGTTGCCT (site GGAGATGCTAG) | 0.0967 |
| GGAGATGCTTGGGTTCTAACCTGTTGCCT (site GGAGAAGCTAG) | 0.783 |
| GGAGATGCTTGGGTTCTAACCTGTTGCCT (site GGAGACGCTAG) | 0.291 |
| GGAGATGCTTGGGTTCTAACCTGTTGCCT (site GGAGAGGCTAG) | 0.226 |
| GGAGATGCTTGGGTTCTAACCTGTTGCCT (site GGAGATGCTAG) | 1.74 |
| GGAGCAGCTTGGGTTCTAACCTGTTGCCT (site GGAGCACCTAG) | 0.223 |
| GGAGCAGCTTGGGTTCTAACCTGTTGCCT (site GGAGCAGCTAG) | 1.16 |
| GGAGCCTCTTGGGTTCTAACCTGTTGCTC (site GGAGCCTCTGA) | 1.7 |
| GGAGCCTCTTGGGTTCTAACCTGTTGCTC (site GGGGCCTCTCA) | 0.177 |
| GGAGCTCCTTGGGTTCTAACCTGTTGCCG (site ACTCACACTAA) | 0.152 |
| GGAGCTCCTTGGGTTCTAACCTGTTGCCG (site GGAGCTCCTCG) | 0.846 |
| GGAGGGTCTTGGGTTCTAACCTGTTGCTT (site AGAGGGTCTAA) | 0.693 |

| Sequence | recombinant barcode read abundance (log10) |
| --- | --- |
| GGAGGGTCTTGGGTTCTAACCTGTTGCTT (site CGAGGGTCTAA) | 0.229 |
| GGAGGGTCTTGGGTTCTAACCTGTTGCTT (site GGAGGGTCTAA) | 1.72 |
| GGAGGGTCTTGGGTTCTAACCTGTTGCTT (site TGAGGGTCTAA) | 0.292 |
| GGATACACTTGGGTTCTAACCTGTTGCCG (site GGATACACTCG) | 1.66 |
| GGATACACTTGGGTTCTAACCTGTTGCCG (site TAGACGGCTAT) | 0.342 |
| GGATACACTTGGGTTCTAACCTGTTGCGT (site GGATACACTAC) | 2.76 |
| GGATACACTTGGGTTCTAACCTGTTGCGT (site GGATAGACTAC) | 0.0769 |
| GGATCCACTTGGGTTCTAACCTGTTGCCT (site AGATCCACTAG) | 0.306 |
| GGATCCACTTGGGTTCTAACCTGTTGCCT (site CGATCCACTAG) | 0.0861 |
| GGATCCACTTGGGTTCTAACCTGTTGCCT (site GGATCCACTAG) | 0.399 |
| GGATCCACTTGGGTTCTAACCTGTTGCCT (site TGATCCACTAG) | 0.139 |
| GGATCCTCTTGGGTTCTAACCTGTTGCAT (site GGATCCTCTAT) | 1.69 |
| GGATCCTCTTGGGTTCTAACCTGTTGCAT (site GGCTCCTCTAT) | 0.149 |
| GGATCTACTTGGGTTCTAACCTGTTGCCT (site GAATCTACTAG) | 0.174 |
| GGATCTACTTGGGTTCTAACCTGTTGCCT (site GCATCTACTAG) | 0.514 |
| GGATCTACTTGGGTTCTAACCTGTTGCCT (site GGATCTACTAG) | 0.235 |
| GGATCTACTTGGGTTCTAACCTGTTGCCT (site GTATCTACTAG) | 0.0262 |
| GGATTGTCTTGGGTTCTAACCTGTTGCTT (site GGATTGTCTAA) | 0.742 |
| GGATTGTCTTGGGTTCTAACCTGTTGCTT (site GGCTAGTCTAA) | 0.0862 |
| GGCACAACTTGGGTTCTAACCTGTTGCCT (site GGCACAACTAG) | 0.804 |
| GGCACAACTTGGGTTCTAACCTGTTGCCT (site GGCACCACTAG) | 0.0796 |
| GGCACAACTTGGGTTCTAACCTGTTGCCT (site GGCACGACTAG) | 0.262 |

| Sequence | recombinant barcode read abundance (log10) |
| --- | --- |
| GGCACAACTTGGGTTCTAACCTGTTGCCT (site GGCACTACTAG) | 0.0426 |
| GGCACAGCTTGGGTTCTAACCTGTTGCCT (site GGCACAGCTAG) | 0 |
| GGCACAGCTTGGGTTCTAACCTGTTGCCT (site GGCACCGCTAG) | 0.171 |
| GGCACAGCTTGGGTTCTAACCTGTTGCCT (site GGCACGGCTAG) | 0.067 |
| GGCACAGCTTGGGTTCTAACCTGTTGCCT (site GGCACTGCTAG) | 0.0566 |
| GGCACCACTTGGGTTCTAACCTGTTGCCG (site GGCACCACTCG) | 0.295 |
| GGCACCACTTGGGTTCTAACCTGTTGCCG (site TCTTGACCTAA) | 0.251 |
| GGCACCACTTGGGTTCTAACCTGTTGCCT (site GGCACAACTAG) | 0.0402 |
| GGCACCACTTGGGTTCTAACCTGTTGCCT (site GGCACCACTAG) | 0.722 |
| GGCACCACTTGGGTTCTAACCTGTTGCCT (site GGCACGACTAG) | 0.0916 |
| GGCACCACTTGGGTTCTAACCTGTTGCCT (site GGCACTACTAG) | 0.0174 |
| GGCACTACTTGGGTTCTAACCTGTTGCCT (site GGCACAACTAG) | 0.0867 |
| GGCACTACTTGGGTTCTAACCTGTTGCCT (site GGCACCACTAG) | 0.716 |
| GGCACTACTTGGGTTCTAACCTGTTGCCT (site GGCACGACTAG) | 0.166 |
| GGCACTACTTGGGTTCTAACCTGTTGCCT (site GGCACTACTAG) | 0.392 |
| GGCAGCTCTTGGGTTCTAACCTGTTGCTT (site GGCAGATCTAA) | 0.367 |
| GGCAGCTCTTGGGTTCTAACCTGTTGCTT (site GGCAGCTCTAA) | 0.281 |
| GGCAGCTCTTGGGTTCTAACCTGTTGCTT (site GGCAGGTCTAA) | 0.302 |
| GGCAGCTCTTGGGTTCTAACCTGTTGCTT (site GGCAGTTCTAA) | 0.0524 |
| GGCAGTCCTTGGGTTCTAACCTGTTGCCT (site GGCAGTCCTAA) | 0.111 |
| GGCAGTCCTTGGGTTCTAACCTGTTGCCT (site GGCAGTCCTAG) | 0.206 |
| GGCATCCCTTGGGTTCTAACCTGTTGCTA (site GGCATCCCTTA) | 0.654 |

| Sequence | recombinant barcode read abundance (log10) |
| --- | --- |
| GGCATCCCTTGGGTTCTAACCTGTTGCTA (site TTACAGGCTCG) | 0.205 |
| GGCATTCCTTGGGTTCTAACCTGTTGCCT (site GGCACTCCTAG) | 0.0331 |
| GGCATTCCTTGGGTTCTAACCTGTTGCCT (site GGCATTCCTAG) | 0.0435 |
| GGCCTCCCTTGGGTTCTAACCTGTTGCCT (site GGCATCCCTAG) | 0.242 |
| GGCCTCCCTTGGGTTCTAACCTGTTGCCT (site GGCCTCCCTAG) | 0.977 |
| GGCCTCCCTTGGGTTCTAACCTGTTGCCT (site GGCGTCCCTAG) | 0.947 |
| GGCCTCCCTTGGGTTCTAACCTGTTGCCT (site GGCTTCCCTAG) | 0.0579 |
| GGCCTGCCTTGGGTTCTAACCTGTTGCCT (site GGCCTGCCTAG) | 1.31 |
| GGCCTGCCTTGGGTTCTAACCTGTTGCCT (site GTCATGCCTAG) | 0.0864 |
| GGCGAACCTTGGGTTCTAACCTGTTGCAT (site GACGATCCTAT) | 0.126 |
| GGCGAACCTTGGGTTCTAACCTGTTGCAT (site GGCGAACCTAT) | 1.82 |
| GGCGGTACTTGGGTTCTAACCTGTTGCCT (site GGCGGTACTAG) | 1.12 |
| GGCGGTACTTGGGTTCTAACCTGTTGCCT (site GGCTGCACTAG) | 0.197 |
| GGCGTCCCTTGGGTTCTAACCTGTTGCCT (site GGCATCCCTAG) | 0.284 |
| GGCGTCCCTTGGGTTCTAACCTGTTGCCT (site GGCCTCCCTAG) | 0.286 |
| GGCGTCCCTTGGGTTCTAACCTGTTGCCT (site GGCGTCCCTAG) | 1.3 |
| GGCGTCCCTTGGGTTCTAACCTGTTGCCT (site GGCTTCCCTAG) | 0.0801 |
| GGCTAGCCTTGGGTTCTAACCTGTTGCCT (site GGCTAGCCTAG) | 0.423 |
| GGCTAGCCTTGGGTTCTAACCTGTTGCCT (site TGTTAGCCTAG) | 0 |
| GGCTCCTCTTGGGTTCTAACCTGTTGCAT (site GGATCCTCTAT) | 0.0148 |
